According to patent US9518271B2, “Lentiviral-based vector and its use in directed evolution of genomic regions, genes and polynucleotides” (CENTRE NATIONAL DE LA RECHERCHE SCIENTIFIQUE, priority 2009, dated 2016):

Experiments:
HEK 293T cells [1] = experiment: Cell death (MTT assay) of HEK 293T clones carrying dCK variants exposed to AraC; type: cell-based, human; conditions: increasing concentrations of AraC, 72 h, FIG. 8
Description: FIG. 8 discloses the cell survival with regard to increasing concentrations of AraC (μM) in presence of the wild type dCK gene (white triangles and solid thick curve) or variants containing point mutations or deletion in the dCK gene (other curves). Each plot represents the average of three independent experiments.
(§1) 80 individual cellular clones at the F17 generation, obtained after transduction of 293T cells at a low multiplicity of infection (and therefore carrying a single variant of the target polynucleotide) have been isolated. The 80 clones have been tested for the kinetic of cell death induced after their exposal to different concentrations of the two anti-cancer drugs, AraC and Gemcitabine, which are cytidine analogues (the natural substrate of dCK) as follows.
Individual clones have been isolated after transduction of HEK 293T cells at low multiplicity of transduction (m.o.i.) and seeding of the transduced cells at limiting dilutions in 96-well plates. […] Seventy-two hours after exposure, cell death has been evaluated for each independent clone and for each drug treatment condition using the MTT assay (Promega) that is a colorimetric test used to quantify cell viability and proliferation. A relative rate of cell death has been calculated for each clone, with respect to the values observed in the plate where no drug was included. […]

[2] = system: Jurkat SLP-76−/−NFAT-luc cell clone; experiment: Luciferase induction in Jurkat SLP-76-/- NFAT-luc cell clone; type: cell-based; conditions: NFAT binding site-driven luciferase; PMA and Calcimycine applied together
Description: (§2) Concerning the screening based on the two luciferase-based readouts (either the one based on transcription driven by the NFAT or by IL2), the inventors have constructed two cell lines which as such are also part of the present invention: • the Jurkat SLP-76−/−plL2-luc cell clone, deposited at the CNCM (Paris, France) under accession number I-4236 on Oct. 30, 2009, in the name of Institut Pasteur, 25-28 rue du Docteur Roux, 75724 Paris Cedex 15, and resulting from the introduction in Jurkat J14 cells (SLP-76−/−) of the firefly luciferase gene under the control of two copies of the IL2 promoter; and • the Jurkat SLP-76−/−NFAT-luc cell clone, deposited at the CNCM under accession number I-4237 on Oct. 30, 2009, in the name of Institut Pasteur, 25-28 rue du Docteur Roux, 75724 Paris Cedex 15, and resulting from the introduction in Jurkat J14 cells (SLP-76−/−) of the firefly luciferase gene preceded by three copies of the NFAT binding site.

[3] = system: Jurkat SLP-76−/−plL2-luc cell clone; experiment: Luciferase induction in Jurkat SLP-76-/- pIL2-luc cell clone; type: cell-based; conditions: IL2 promoter-driven luciferase; PMA and Calcimycine applied together
Description: as §2

Messa 10K cells [4] = experiment: Sensitivity to Gemcitabine of Messa 10K cells transduced with dCK variants; type: cell-based, human
Experimental: FIG. 10 discloses (A) the cell survival with regard to increasing concentrations of Gemcitabine (nM) in untransduced Messa 10K cells (grey solid line), in presence of the wild type dCK gene (large dashed lines) or in presence of dCK G12 variants gene (black solid lines); (B) the survival of Messa 10K cells in presence of 75 nM Gemcitabine in untransduced Messa 10K cells (Messa10K), in Messa 10K cells transduced with a viral vector carrying a wild type dCK gene (M-dCK), in Messa 10K cells transduced with a viral vector carrying the E8 variant dCK gene with mutations G>A 739 et C>A 745 (M-E8) or in Messa 10K cells transduced with a viral vector carrying the G12 variant dCK gene (M-G12), and (C) Western Blot to detect dCK expression on cell lysates, using a polyclonal rabbit antibody; M: untransduced Messa10K cells; M-dCK: Messa10K transduced with a vector carrying the wt dCK gene (4 independent populations); M-G12: Messa10K transduced with a vector carrying the G12 mutant (4 independent populations).
FIG. 11 discloses the cell survival with regard to increasing concentrations of Gemcitabine (nM) in untransduced Messa10K cells (small dashed line), in Messa10K cells transduced with a vector carrying the wt dCK gene (large dashed line; n=5), in Messa10K cells transduced with a vector carrying the sequence of the dCK G12 variant re-inserted in a wild-type backbone (light grey line; n=5), in Messa10K cells transduced with a vector rescued from the 293T-G12-F16 cell line (dark grey line; n=5) and in Messa10K cells transduced with a vector rescued from the 293T-G12-F17 cell line (solid black line; n=5). […]
For these reasons, a strategy for the screening on Messa 10K cells (illustrated in FIG. 9) was set up, aiming at averaging the epigenetic effects possibly influencing the final phenotype by analysing a population of target cells containing the same dCK variant inserted in different sites of the genome. […] The totality of the clones of the same variant were cultivated and analysed for the sensitivity to Gemcitabine in the assay previously described. […]

HEK 293T cells [5] = experiment: Cell death (MTT assay) of HEK 293T clones carrying dCK variants exposed to Gemcitabine; type: cell-based, human; conditions: 10 nM Gemcitabine, average of 4 independent experiments
Description: as §1
Individual clones have been isolated after transduction of HEK 293T cells at low multiplicity of transduction (m.o.i.) and seeding of the transduced cells at limiting dilutions in 96-well plates. Individual cell clones growing in the presence of puromycin have then been expanded and seeded in parallel in several replicated 96-well plates. All these plates, with the exception of one to use as control, have been exposed to the anticancer drug at different concentrations, while the control plate has been maintained in the absence of drug. Seventy-two hours after exposure, cell death has been evaluated for each independent clone and for each drug treatment condition using the MTT assay (Promega) that is a colorimetric test used to quantify cell viability and proliferation. A relative rate of cell death has been calculated for each clone, with respect to the values observed in the plate where no drug was included. […]

Messa 10K cells [6] = conditions: Messa 10K cells lacking functional dCK; read-out: Gemcitabine 1050; cited from earlier work

Compound: G7: dCK variant with a G to A transition at position 521, leading to the G174E variation at the amino acid level [Clone G7]
- cell death induced by AraC compared with wt dCK (HEK 293T cells [1]): clear tendency to induce cell death

Compound: CCCCCCCCCCCCCC(=O)O[C@@H]1[C@@H](C)[C@@]2(O)[C@@H](C=C(CO)C[C@]3(O)C(=O)C(C)=C[C@@H]23)[C@@H]2C(C)(C)[C@]12OC(C)=O [Phorbol Myristate Acetate]
- induction of luciferase [2]: strong induction
- induction of luciferase [3]: strong induction

Compound: CNc1ccc2oc(C[C@H]3O[C@@]4(CC[C@H]3C)O[C@H]([C@H](C)C(=O)c3ccc[nH]3)[C@H](C)C[C@H]4C)nc2c1C(=O)O [Calcimycine]
- induction of luciferase [2]: strong induction
- induction of luciferase [3]: strong induction

Compound: G12: dCK variant with a G to A transition at position 511 (E171K at the amino acid level) [Clone G12]
- cell death ratio (Messa 10K cells [4]; 75 nM Gemcitabine, transduced Messa 10K cells, FIG. 10B): 90%
- sensitivity to Gemcitabine conferred after re-insertion in a wild type lentiviral vector (Messa 10K cells [4]; G12 subcloned from cell line F16, Messa 10K cells, FIG. 11): maintains the ability to confer increased sensitivity to Gemcitabine
- cell death by Gemcitabine compared with wild type dCK (Messa 10K cells [4]; transduced Messa 10K cells, four rounds of screening, FIG. 10A/10B): cell death ratio higher than the one induced from a wild type dCK
- ratio of cell survival in G12 cells/dCK cells (HEK 293T cells [5]): 0.50±0.11

Compound: Nc1ccn([C@@H]2O[C@H](CO)[C@@H](O)C2(F)F)c(=O)n1 [Gemcitabine]
- IC50 (Messa 10K cells [6]): 11 µM
